In ChEMBL document CHEMBL5316328, “Discovery of AXL Degraders with Improved Potencies in Triple-Negative Breast Cancer (TNBC) Cells” (J Med Chem, 2023):

What was measured:
[1] = molecular target: Protein cereblon/Tyrosine-protein kinase receptor UFO (Homo sapiens, UniProt P30530+Q96SW2); experiment: PROTAC activity at CRBN/AXL in human MDA-MB-231 cells assessed as induction of AXL degradation at 40 nM by Western blot analysis; type: cell-based; conditions: time <= 72.0 hrs, TDE = time-dependent effect
MDA-MB-231 = experiment: Antitumor activity against human MDA-MB-231 cells xenografted in Balb/c nude mouse assessed as tumor growth inhibition at 20 mg/kg, ip administered for 22 days and measured 24 hrs post last dose relative to control; type: functional; conditions: MDA-MB-231, 552 h, time 23 day, read-out: TGI

Chain of Protein cereblon/Tyrosine-protein kinase receptor UFO (P30530 26-894 limits assumed): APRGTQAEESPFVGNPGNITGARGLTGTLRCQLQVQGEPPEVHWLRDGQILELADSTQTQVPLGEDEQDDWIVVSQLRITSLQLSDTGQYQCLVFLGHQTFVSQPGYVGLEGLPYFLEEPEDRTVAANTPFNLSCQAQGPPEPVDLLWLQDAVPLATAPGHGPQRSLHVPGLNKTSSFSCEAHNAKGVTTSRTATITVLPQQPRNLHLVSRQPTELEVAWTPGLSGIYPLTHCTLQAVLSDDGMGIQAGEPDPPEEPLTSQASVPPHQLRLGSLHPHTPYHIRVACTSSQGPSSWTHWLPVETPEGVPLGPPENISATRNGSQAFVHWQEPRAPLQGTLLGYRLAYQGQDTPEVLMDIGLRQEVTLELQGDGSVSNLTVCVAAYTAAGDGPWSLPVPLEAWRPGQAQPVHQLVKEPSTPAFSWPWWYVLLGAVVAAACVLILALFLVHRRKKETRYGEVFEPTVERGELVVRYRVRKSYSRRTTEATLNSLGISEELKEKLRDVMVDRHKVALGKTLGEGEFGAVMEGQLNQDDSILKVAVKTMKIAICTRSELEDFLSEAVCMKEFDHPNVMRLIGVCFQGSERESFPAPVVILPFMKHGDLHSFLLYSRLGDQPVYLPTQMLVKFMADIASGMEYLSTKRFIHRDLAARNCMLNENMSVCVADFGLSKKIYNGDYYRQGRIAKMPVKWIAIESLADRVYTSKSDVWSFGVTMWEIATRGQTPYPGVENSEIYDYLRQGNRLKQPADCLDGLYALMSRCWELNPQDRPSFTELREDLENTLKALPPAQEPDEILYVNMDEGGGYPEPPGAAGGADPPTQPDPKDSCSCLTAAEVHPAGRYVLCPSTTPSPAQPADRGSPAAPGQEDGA
Chain of Protein cereblon/Tyrosine-protein kinase receptor UFO (Q96SW2 whole entry partner): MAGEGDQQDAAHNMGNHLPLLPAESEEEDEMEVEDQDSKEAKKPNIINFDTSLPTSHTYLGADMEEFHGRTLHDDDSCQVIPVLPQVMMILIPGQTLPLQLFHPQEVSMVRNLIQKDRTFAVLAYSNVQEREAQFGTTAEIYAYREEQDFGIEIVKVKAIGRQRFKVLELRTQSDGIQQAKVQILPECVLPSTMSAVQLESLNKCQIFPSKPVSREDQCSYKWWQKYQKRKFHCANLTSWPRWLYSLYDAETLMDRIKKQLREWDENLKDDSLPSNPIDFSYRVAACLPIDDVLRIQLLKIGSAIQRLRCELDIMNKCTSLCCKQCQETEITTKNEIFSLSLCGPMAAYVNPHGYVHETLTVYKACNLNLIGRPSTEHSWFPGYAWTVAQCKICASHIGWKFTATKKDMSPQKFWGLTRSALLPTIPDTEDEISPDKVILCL

Which Activity [1] does the source give for `CCc1ccc2c(c1)c(=O)c(C(=O)Nc1ccc(Oc3ncnc4cc(OCCCCCC(=O)Nc5ccc6c(c5)CN(C5CCC(=O)NC5=O)C6=O)c(OC)cc34)c(F)c1)c(C)n2C` (configuration not stated) here?
The Activity was “Tde”.

And the inhibition in vivo at 20 mg/kg (MDA-MB-231)?
The inhibition in vivo at 20 mg/kg was 62.5%.
